Read-outs that look alike come from different tables or passages of the source.
Assays:
[1] = target: T1, human α1G T-type channels (Homo sapiens, UniProt O43497); assay: Block of α1G T-type channels, whole-cell patch clamp in HEK cells; assay type: cell-based; conditions: test pulse −40 mV
T1 construct: expressed in transfected cells
Method: Standard patch-clamp techniques were employed to identify blockers of T-type currents. Briefly, previously described HEK cell lines stably expressing human α1G T-type channels were used for all the recordings (passage #: 4-20, 37° C., 5% CO2). To obtain T-type currents, plastic dishes containing semi-confluent cells were positioned on the stage of a ZEISS AXIOVERT S100 microscope after replacing the culture medium with external solution (Table 3). Whole-cell patches were obtained using pipettes (borosilicate glass with filament, O.D.: 1.5 mm, I.D.: 0.86 mm, 10 cm length), fabricated on a SUTTER P-97 puller with resistance values of ˜5 MΩ (Table 4 ).
T-type currents were reliably obtained by using two voltage protocols: “non-inactivating”, and “inactivation”. In the non-inactivating protocol, the holding potential is set at −110 mV and with a pre-pulse at −100 mV for 1 second prior to the test pulse at −40 mV for 50 ms. In the inactivation protocol, the pre-pulse is at approximately −85 mV for 1 second, which inactivates about ^15% of the T-type channels.
Test compounds were dissolved in external solution, 0.1-0.01% DMSO. After ˜10 min rest, they were applied by gravity close to the cell using a WPI microfil tubing. The “non-inactivated” pre-pulse was used to examine the resting block of a compound. The “inactivated” protocol was employed to study voltage-dependent block. However, the initial data shown below were mainly obtained using the non-inactivated protocol only. IC50 values are shown for various compounds of the invention in Table 5.

[2] = target: T2, rat brain N-type calcium channel subunits (α1B+α2δ+β1b cDNA subunits) (Rattus norvegicus, UniProt Q02294); assay: N-type calcium channel block, whole cell patch clamp in HEK 293 cells; assay type: cell-based; conditions: holding potential −80 mV to +10 mV, 5 mM BaCl2
T2 construct: expressed in transfected cells; host or cells: HEK 293
T2 sequence (Q02294 whole entry): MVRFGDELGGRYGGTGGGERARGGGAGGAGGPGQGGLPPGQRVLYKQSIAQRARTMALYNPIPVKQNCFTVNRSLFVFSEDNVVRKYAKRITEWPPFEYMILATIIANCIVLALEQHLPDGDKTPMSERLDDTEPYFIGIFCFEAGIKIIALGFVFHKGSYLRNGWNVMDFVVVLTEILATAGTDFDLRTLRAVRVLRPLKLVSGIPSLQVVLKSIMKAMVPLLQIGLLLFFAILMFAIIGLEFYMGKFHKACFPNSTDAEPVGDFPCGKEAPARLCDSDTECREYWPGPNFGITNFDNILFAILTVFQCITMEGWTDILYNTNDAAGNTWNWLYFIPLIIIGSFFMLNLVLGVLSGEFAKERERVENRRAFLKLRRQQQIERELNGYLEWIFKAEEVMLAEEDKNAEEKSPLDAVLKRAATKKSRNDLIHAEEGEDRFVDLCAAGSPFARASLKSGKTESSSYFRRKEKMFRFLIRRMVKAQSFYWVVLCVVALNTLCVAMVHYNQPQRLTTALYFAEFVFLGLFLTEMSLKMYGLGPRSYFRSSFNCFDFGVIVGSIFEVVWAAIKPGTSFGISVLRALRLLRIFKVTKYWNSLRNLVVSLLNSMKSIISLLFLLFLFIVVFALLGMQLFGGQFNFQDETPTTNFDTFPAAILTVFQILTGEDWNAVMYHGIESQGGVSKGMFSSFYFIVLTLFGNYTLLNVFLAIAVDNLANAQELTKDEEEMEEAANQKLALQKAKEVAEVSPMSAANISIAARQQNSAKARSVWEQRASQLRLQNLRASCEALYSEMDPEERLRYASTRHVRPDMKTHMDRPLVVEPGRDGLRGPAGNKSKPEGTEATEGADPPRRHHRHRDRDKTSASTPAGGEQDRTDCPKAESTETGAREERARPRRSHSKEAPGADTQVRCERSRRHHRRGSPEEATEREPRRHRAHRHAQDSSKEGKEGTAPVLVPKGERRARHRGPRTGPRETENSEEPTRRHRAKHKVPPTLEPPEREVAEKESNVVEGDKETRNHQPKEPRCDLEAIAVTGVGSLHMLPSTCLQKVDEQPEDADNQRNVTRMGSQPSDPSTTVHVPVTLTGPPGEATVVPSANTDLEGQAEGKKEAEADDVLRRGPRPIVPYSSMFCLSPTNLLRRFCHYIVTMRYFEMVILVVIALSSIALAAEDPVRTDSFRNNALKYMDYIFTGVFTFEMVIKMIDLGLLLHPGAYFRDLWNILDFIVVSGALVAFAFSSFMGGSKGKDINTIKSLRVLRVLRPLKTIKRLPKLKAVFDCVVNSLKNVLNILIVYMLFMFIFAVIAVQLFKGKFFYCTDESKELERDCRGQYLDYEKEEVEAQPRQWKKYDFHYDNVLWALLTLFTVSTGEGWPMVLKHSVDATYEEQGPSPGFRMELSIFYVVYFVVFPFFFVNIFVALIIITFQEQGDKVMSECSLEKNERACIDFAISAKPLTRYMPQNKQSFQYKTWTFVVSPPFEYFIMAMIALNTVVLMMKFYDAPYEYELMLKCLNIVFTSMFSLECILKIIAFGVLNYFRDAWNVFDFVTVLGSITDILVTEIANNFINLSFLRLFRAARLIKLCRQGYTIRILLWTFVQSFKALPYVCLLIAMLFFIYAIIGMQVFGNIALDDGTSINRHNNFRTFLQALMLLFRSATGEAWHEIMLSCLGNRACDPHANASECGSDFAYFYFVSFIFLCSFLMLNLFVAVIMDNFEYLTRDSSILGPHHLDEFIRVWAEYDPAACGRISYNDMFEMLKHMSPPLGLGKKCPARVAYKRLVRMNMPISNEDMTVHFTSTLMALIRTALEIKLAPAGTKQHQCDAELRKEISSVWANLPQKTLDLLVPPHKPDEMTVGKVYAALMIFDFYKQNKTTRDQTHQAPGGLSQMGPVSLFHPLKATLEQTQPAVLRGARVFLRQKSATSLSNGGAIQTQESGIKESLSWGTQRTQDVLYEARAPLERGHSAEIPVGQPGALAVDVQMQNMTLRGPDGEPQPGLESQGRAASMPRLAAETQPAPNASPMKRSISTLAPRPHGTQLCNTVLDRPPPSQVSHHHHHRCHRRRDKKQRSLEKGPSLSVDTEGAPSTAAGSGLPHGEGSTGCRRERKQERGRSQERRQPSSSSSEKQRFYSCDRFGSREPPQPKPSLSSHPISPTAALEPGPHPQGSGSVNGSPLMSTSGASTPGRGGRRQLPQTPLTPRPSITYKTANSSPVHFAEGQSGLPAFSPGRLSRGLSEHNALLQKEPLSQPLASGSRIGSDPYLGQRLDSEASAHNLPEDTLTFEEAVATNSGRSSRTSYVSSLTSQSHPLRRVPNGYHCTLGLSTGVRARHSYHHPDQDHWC
T2 sequence (P54290 25-944 partner limits assumed): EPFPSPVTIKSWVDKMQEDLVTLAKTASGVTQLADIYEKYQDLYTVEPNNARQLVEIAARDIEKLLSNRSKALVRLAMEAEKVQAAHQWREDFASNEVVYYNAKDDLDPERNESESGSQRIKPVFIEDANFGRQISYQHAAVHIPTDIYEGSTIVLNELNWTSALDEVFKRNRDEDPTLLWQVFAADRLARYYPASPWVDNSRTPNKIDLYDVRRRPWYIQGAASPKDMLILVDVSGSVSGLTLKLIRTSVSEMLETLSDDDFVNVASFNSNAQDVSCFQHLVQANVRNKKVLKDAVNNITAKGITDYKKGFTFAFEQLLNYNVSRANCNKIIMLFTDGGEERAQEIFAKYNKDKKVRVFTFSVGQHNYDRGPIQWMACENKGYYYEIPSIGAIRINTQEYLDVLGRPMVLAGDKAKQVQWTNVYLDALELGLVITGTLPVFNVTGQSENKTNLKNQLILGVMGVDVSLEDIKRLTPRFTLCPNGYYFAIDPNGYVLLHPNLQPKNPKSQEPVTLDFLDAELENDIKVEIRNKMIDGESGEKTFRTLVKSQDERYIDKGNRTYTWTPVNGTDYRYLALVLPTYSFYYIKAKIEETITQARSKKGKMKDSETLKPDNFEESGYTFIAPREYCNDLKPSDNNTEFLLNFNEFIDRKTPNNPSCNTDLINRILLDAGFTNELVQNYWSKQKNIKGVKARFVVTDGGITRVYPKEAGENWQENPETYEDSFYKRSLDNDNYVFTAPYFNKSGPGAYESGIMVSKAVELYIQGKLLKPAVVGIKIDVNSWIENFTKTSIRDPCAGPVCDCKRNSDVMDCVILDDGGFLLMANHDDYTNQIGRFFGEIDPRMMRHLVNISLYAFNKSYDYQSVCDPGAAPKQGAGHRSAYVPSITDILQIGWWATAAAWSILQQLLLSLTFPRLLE
T2 sequence (P54290 945-1091 partner limits assumed): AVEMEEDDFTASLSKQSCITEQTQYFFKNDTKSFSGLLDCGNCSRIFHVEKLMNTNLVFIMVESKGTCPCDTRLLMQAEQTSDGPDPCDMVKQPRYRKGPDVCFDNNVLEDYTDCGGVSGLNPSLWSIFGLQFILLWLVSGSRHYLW
T2 sequence (P54283 whole entry partner): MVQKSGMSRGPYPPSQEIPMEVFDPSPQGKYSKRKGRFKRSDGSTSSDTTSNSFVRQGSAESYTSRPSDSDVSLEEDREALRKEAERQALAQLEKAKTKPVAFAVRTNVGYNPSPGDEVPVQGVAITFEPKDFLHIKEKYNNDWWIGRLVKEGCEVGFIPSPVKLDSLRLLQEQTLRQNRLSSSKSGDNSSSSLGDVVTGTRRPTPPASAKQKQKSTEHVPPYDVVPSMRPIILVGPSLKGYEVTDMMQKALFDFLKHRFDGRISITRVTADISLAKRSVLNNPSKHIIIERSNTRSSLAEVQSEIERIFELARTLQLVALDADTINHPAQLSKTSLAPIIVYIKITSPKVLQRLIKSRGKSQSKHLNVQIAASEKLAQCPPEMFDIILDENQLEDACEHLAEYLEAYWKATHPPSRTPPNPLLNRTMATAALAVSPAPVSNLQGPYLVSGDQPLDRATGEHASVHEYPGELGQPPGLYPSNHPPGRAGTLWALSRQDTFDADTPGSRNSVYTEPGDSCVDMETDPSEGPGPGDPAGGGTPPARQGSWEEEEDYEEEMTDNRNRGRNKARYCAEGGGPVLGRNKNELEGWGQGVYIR
Source text: Normalized dose-response curves were fit (Sigmaplot 4.0, SPSS Inc., Chicago, Ill.) by the Hill equation to determine IC50 values. Steady-state inactivation curves were plotted as the normalized test pulse amplitude following 5 s inactivating prepulses at +10 mV increments. Inactivation curves were fit (Sigmaplot 4.0) with the Boltzman equation, Ipeak (normalized)=1/(1+exp((V-Vh)z/25.6)), where V and Vh are the conditioning and half inactivation potentials, respectively, and z is the slope factor.
The methods of Example 11 were followed with slight modifications as will be apparent from the description below.
N-type calcium channel blocking activity was assayed in human embryonic kidney cells, HEK 293, stably transfected with the rat brain N-type calcium channel subunits (α1B+α2δ+β1b cDNA subunits). Briefly, cells were cultured in Dulbecco's modified eagle medium (DMEM) supplemented with 10% fetal bovine serum, 200 U/ml penicillin and 0.2 mg/ml streptomycin at 37° C. with 5% CO2. At 85% confluency, cells were split with 0.25% trypsin/1 mM EDTA and plated at 10% confluency on glass coverslips. At 12 hours the medium was. replaced and the cells transfected using a standard calcium phosphate protocol and the appropriate calcium channel cDNAs. Fresh DMEM was supplied and the cells transferred to 28° C./5% CO2. Cells were incubated for 1 to 2 days to whole cell recording.
Whole cell patch clamp experiments were performed using an Axopatch 200B amplifier (Axon Instruments, Burlingame, Calif.) linked to a personal computer equipped with pCLAMP software. The external and internal recording solutions contained, respectively, 5 mM BaCl2, 10 mM MgCl2, 10 mM HEPES, 40 mM TEACl, 10 mM glucose, 87.5 mM CsCl (pH 7.2) and 108 mM CsMS, 4 mM MgCl2, 9 mM EGTA, 9 mM HEPES (pH 7.2). Currents were typically elicited from a holding potential of −80 mV to +10 mV using Clampex software (Axon Instruments). Typically, currents were first elicited with low frequency stimulation (0.067 Hz) and allowed to stabilize prior to application of the compounds. The compounds were then applied during the low frequency pulse trains for two to three minutes to assess tonic block, and subsequently the pulse frequency was increased to 0.2 Hz to assess frequency dependent block. Data were analyzed using Clampfit (Axon Instruments) and SigmaPlot 4.0 (Jandel Scientific).

[3] = −80 mV (inactivation protocol), read-out: IC50 at −80 mV
[4] = −100 mV (non-inactivating protocol), read-out: IC50 at −100 mV
[5] = frequency dependent block, pulse frequency 0.2 Hz, read-out: IC50 at 0.2 Hz
[6] = tonic block, low frequency stimulation 0.067 Hz, read-out: IC50 at 0.067 Hz

| SMILES | IC50 [1, 3] | IC50 [1, 4] | IC50 [2, 5] | IC50 [2, 6] | IC50 at −80 mV ([1]; −80 mV (inactivation protocol)) | IC50 at −100 mV ([1]; −100 mV (non-inactivating protocol)) |
| --- | --- | --- | --- | --- | --- | --- |
| CN(C(=O)CC(c1ccccc1)c1ccccc1)[C@@H]1CCN(C(c2ccccc2)c2ccccc2)C1 [Compound P3, (R)-N-(1-Benzhydryl-pyrrolidin-3-yl)-N-methyl-3,3-diphenyl-propionamide] | 0.364 µM | 0.91 µM | 0.044 µM | 0.112 µM | – | – |
| CN(C(=O)CC(c1ccccc1)c1ccccc1)[C@H]1CCN(C(c2ccccc2)c2ccccc2)C1 [Compound P6, (S)-N-(1-Benzhydryl-pyrrolidin-3-yl)-N-methyl-3,3-diphenyl-propionamide] | 0.455 µM | 1.16 µM | 0.365 µM | 0.638 µM | – | – |
| CN(C(=O)CC(c1ccccc1)c1ccccc1)[C@@H]1CCN(Cc2cccnc2)C1 [Compound P8, (R)-N-Methyl-3,3-diphenyl-N-(1-pyridin-3-ylmethyl-pyrrolidin-3-yl)-propionamide] | – | – | 0.987 µM | 3 µM | No block | No block |
| CN(C(=O)CC(c1ccccc1)c1ccccc1)[C@@H]1CCN(Cc2ccccn2)C1 [Compound P9, (R)-N-Methyl-3,3-diphenyl-N-(1-pyridin-2-ylmethyl-pyrrolidin-3-yl)-propionamide] | 0.16 to 2.4 µM | 0.15 to 4.5 µM | 0.617 µM | 1.3 µM | – | – |
| CN(C(=O)CC(c1ccccc1)c1ccccc1)[C@@H]1CCN(C(c2ccccc2)c2ccncc2)C1 (stereo partly drawn) [Compound P10, (R)-N-Methyl-3,3-diphenyl-N-[1-(phenyl-pyridin-4-yl-methyl)-pyrrolidin-3-yl]-propionamide] | 0.882 µM | 3.46 µM | 0.52 µM | 0.714 µM | – | – |
| CN(C(=O)CC(c1ccccc1)c1ccccc1)[C@@H]1CCN(C(c2ccccc2)c2cccnc2)C1 (stereo partly drawn) [Compound P11, (R)-N-Methyl-3,3-diphenyl-N-[1-(phenyl-pyridin-3-yl-methyl)-pyrrolidin-3-yl]-propionamide] | 0.374 µM | 1.8 µM | 0.302 µM | 0.386 µM | – | – |
| CN(C(=O)CC(c1ccccc1)c1ccccc1)[C@@H]1CCN(C(c2ccccc2)c2ccccn2)C1 (stereo partly drawn) [Compound P12, (R)-N-Methyl-3,3-diphenyl-N-[1-(phenyl-pyridin-2-yl-methyl)-pyrrolidin-3-yl]-propionamide] | 0.335 µM | 0.647 µM | 0.285 µM | 0.362 µM | – | – |
| CN(C(=O)CC(c1ccccc1)c1ccccc1)[C@H]1CCN(Cc2ccncc2)C1 [Compound P13, (S)-N-Methyl-3,3-diphenyl-N-(1-pyridin-4-ylmethyl-pyrrolidin-3-yl)-propionamide] | 0.488 µM | 5 µM | 0.471 µM | 0.913 µM | – | – |
| CN(C(=O)CN(c1ccccc1)c1ccccc1)[C@H]1CCN(C(c2ccccc2)c2ccccc2)C1 [Compound P14, (S)-N-(1-Benzhydryl-pyrrolidin-3-yl)-2-diphenylamino-N-methyl-acetamide] | 0.099 µM | 0.609 µM | 0.252 µM | 0.366 µM | – | – |
| CN(CC(=O)N(c1ccccc1)c1ccccc1)[C@H]1CCN(C(c2ccccc2)c2ccccc2)C1 [Compound P15, (S)-2-[(1-Benzhydryl-pyrrolidin-3-yl)-methyl-amino]-N,N-diphenyl-acetamide] | 0.115 µM | 0.692 µM | 0.216 µM | 0.287 µM | – | – |
| CN(C(=O)NC(c1ccccc1)c1ccccc1)[C@H]1CCN(C(c2ccccc2)c2ccccc2)C1 [Compound P16, (S)-3-Benzhydryl-1-(1-benzhydryl-pyrrolidin-3-yl)-1-methyl-urea] | 0.926 µM | 2.2 µM | 0.601 µM | 1.03 µM | – | – |

From patent publication US7507760B2, “N-type calcium channel blockers” (Neuromed Pharmaceuticals Ltd., priority 2004, dated 2009)
